According to patent US9018392B1, “Compounds, compositions and methods for crop enhancement” (Active AgriProducts Inc., priority 2014, dated 2015):

Columns and labels:
Format in all cases: in vivo
wheat [1] = assay: Experiment 6 wheat growth, field test conditions; settings: 20 ppm and 40 ppm, alone and combined with CRUISER MAXX™ and DIVIDEND™, 10 days
Procedure: For the Experiments described below, application of 1,2-dimethyl-4-dimethylaminomethyl-5-hydroxy benzimidazole (referred to herein as INTRINSICTM) was by way of seed treatment. Treated seeds were prepared by mixing 1.0 kg of seed and 2.0 mL of an aqueous solution of INTRINSICTM comprising 0.1% potassium hydroxide in a ZIPLOCTM bag. Control seeds were prepared by mixing 1.0 kg of seed and 2.0 mL of aqueous 0.1% potassium hydroxide solution in a ZIPLOCTM bag. The seeds and solutions were sufficiently mixed to wet the seeds. The seeds were dried after being wetted. […] Experiment 6 tested the effects of 20 ppm and 40 ppm INTRINSICTM, alone and combined with known seed treatments (CRUISER […] and […], from SyngentaTM Canada Inc., applied per manufacturer's recommendations), on wheat growth under field test conditions.

soy bean [2] = assay: Experiment 4 soy bean root growth, greenhouse conditions; settings: 40 ppm seed treatment; 10 days
Procedure: (§1) For the Experiments described below, application of 1,2-dimethyl-4-dimethylaminomethyl-5-hydroxy benzimidazole (referred to herein as INTRINSIC™) was by way of seed treatment. Treated seeds were prepared by mixing 1.0 kg of seed and 2.0 mL of an aqueous solution of INTRINSIC™ comprising 0.1% potassium hydroxide in a ZIPLOC™ bag. Control seeds were prepared by mixing 1.0 kg of seed and 2.0 mL of aqueous 0.1% potassium hydroxide solution in a ZIPLOC™ bag. The seeds and solutions were sufficiently mixed to wet the seeds. The seeds were dried after being wetted. […] Experiment 4 tested the effects of 40 ppm INTRINSIC™ on soy bean root growth under greenhouse conditions.

canola [3] = assay: Experiment 11 canola yield, field test conditions, second site; settings: 20 ppm and 40 ppm seed treatment, crop maturation (approximately 90 days)
Procedure: (§2) For the Experiments described below, application of 1,2-dimethyl-4-dimethylaminomethyl-5-hydroxy benzimidazole (referred to herein as INTRINSIC™) was by way of seed treatment. Treated seeds were prepared by mixing 1.0 kg of seed and 2.0 mL of an aqueous solution of INTRINSIC™ comprising 0.1% potassium hydroxide in a ZIPLOC™ bag. Control seeds were prepared by mixing 1.0 kg of seed and 2.0 mL of aqueous 0.1% potassium hydroxide solution in a ZIPLOC™ bag. The seeds and solutions were sufficiently mixed to wet the seeds. The seeds were dried after being wetted. […] Experiments 10 and 11 tested the effects of 20 ppm and 40 ppm INTRINSIC™ on canola yield under field test conditions. FIGS. 10(a) and 10(b) display yield results at crop maturation (approximately 90 days) at a first site, showing greater yield crops from treated seeds compared to crops from control seeds. FIGS. 11(a) and 11(b) display yield results at crop maturation (approximately 90 days) at a second site, again showing greater yield crops from treated seeds compared to crops from control seeds.

canola [4] = assay: Experiment 10 canola yield, field test conditions, first site; settings: 20 ppm and 40 ppm seed treatment, crop maturation (approximately 90 days)
Procedure: as §2

wheat [5] = assay: Experiment 9 wheat yield, field test conditions; settings: crop maturation (approximately 90 days)
Procedure: For the Experiments described below, application of 1,2-dimethyl-4-dimethylaminomethyl-5-hydroxy benzimidazole (referred to herein as INTRINSICTM) was by way of seed treatment. Treated seeds were prepared by mixing 1.0 kg of seed and 2.0 mL of an aqueous solution of INTRINSICTM comprising 0.1% potassium hydroxide in a ZIPLOCTM bag. Control seeds were prepared by mixing 1.0 kg of seed and 2.0 mL of aqueous 0.1% potassium hydroxide solution in a ZIPLOCTM bag. The seeds and solutions were sufficiently mixed to wet the seeds. The seeds were dried after being wetted. […] Experiment 9 tested the effects of 40 ppm INTRINSICTM, CRUISER […], and the combination of the two, on wheat yield under field test conditions. CRUISER […] was applied per the manufacturer's recommendations. FIGS. 9(a) and 9(b) display yield results at crop maturation (approximately 90 days), showing greater yield crops from INTRINSICTM-treated seeds (whether alone or in combination with CRUISER […]) compared to crops from control seeds.

canola [6] = assay: Experiment 8 canola growth, field test conditions, second site; settings: 10 days
Procedure: (§3) For the Experiments described below, application of 1,2-dimethyl-4-dimethylaminomethyl-5-hydroxy benzimidazole (referred to herein as INTRINSIC™) was by way of seed treatment. Treated seeds were prepared by mixing 1.0 kg of seed and 2.0 mL of an aqueous solution of INTRINSIC™ comprising 0.1% potassium hydroxide in a ZIPLOC™ bag. Control seeds were prepared by mixing 1.0 kg of seed and 2.0 mL of aqueous 0.1% potassium hydroxide solution in a ZIPLOC™ bag. The seeds and solutions were sufficiently mixed to wet the seeds. The seeds were dried after being wetted. […] Experiments 7 and 8 tested the effects of 20 ppm and 40 ppm INTRINSIC™, on canola growth under field test conditions.

canola [7] = assay: Experiment 3 canola root growth, greenhouse conditions; settings: 40 ppm seed treatment; 10 days
Procedure: as §1, with “Experiment 3” for “Experiment 4”, “on canola” for “on soy bean”

wheat [8] = assay: Experiment 2(a) wheat root growth, laboratory conditions, seedling trays; settings: 20 ppm and 40 ppm seed treatment; 72 hours; FIG. 2(a)
Procedure: as §1, with “Experiment 2(a) tested the effects of 20 ppm and 40 ppm INTRINSIC™ on wheat root growth under laboratory conditions. Treated and control seeds were grown in seedling trays lined with moistened tissue. Experiment 2(b)” for “Experiment 4”, “on wheat” for “on soy bean”, “conditions. Experiment 2(c) tested the effects of 40 ppm INTRINSIC™ on wheat root growth under laboratory conditions. Treated and control seeds were grown in agar culture medium. Results at 8 days are shown Figure in FIG. 2(c).” for “conditions.”

corn = assay: Experiment 5 corn root growth, greenhouse conditions; settings: 40 ppm seed treatment; 10 days
Procedure: as §1, with “Experiment 5” for “Experiment 4”, “on corn” for “on soy bean”

wheat [9] = assay: Experiment 2(c) wheat root growth, laboratory conditions, agar culture medium; settings: 40 ppm seed treatment, 8 days, FIG. 2(c)
Procedure: as §1, with “Experiment 2(a) tested the effects of 20 ppm and 40 ppm INTRINSIC™ on wheat root growth under laboratory conditions. […] Experiment 2(b)” for “Experiment 4”, “on wheat” for “on soy bean”, “conditions. Experiment 2(c) tested the effects of 40 ppm INTRINSIC™ on wheat root growth under laboratory conditions. Treated and control seeds were grown in agar culture medium. Results at 8 days are shown Figure in FIG. 2(c).” for “conditions.”

canola [10] = assay: Experiment 7 canola growth, field test conditions, first site; settings: 20 ppm and 40 ppm seed treatment, 10 days
Procedure: as §3

wheat [11] = assay: Experiment 2(b) wheat root growth, greenhouse conditions; settings: 40 ppm seed treatment, 10 days, FIG. 2(b)
Procedure: as §1, with “Experiment 2(a) tested the effects of 20 ppm and 40 ppm INTRINSIC™ on wheat root growth under laboratory conditions. Treated and control seeds were grown in seedling trays lined with moistened tissue. Experiment 2(b)” for “Experiment 4”, “on wheat” for “on soy bean”, “conditions. Experiment 2(c) tested the effects of 40 ppm INTRINSIC™ on wheat root growth under laboratory conditions. Treated and control seeds were grown in agar culture medium. Results at 8 days are shown Figure in FIG. 2(c).” for “conditions.”

soy bean [12] = assay: Experiment 12 soy bean yield, field test conditions; settings: 20 ppm and 40 ppm seed treatment; crop maturation (approximately 90 days)
Procedure: as §2, with “Experiment 12” for “Experiments 10 and 11”, “soy bean” for “canola”, “12(a)” for “10(a)”, “12(b)” for “10(b)”, “days),” for “days) at a first site,”, “seeds.” for “seeds. FIGS. 11(a) and 11(b) display yield results at crop maturation (approximately 90 days) at a second site, again showing greater yield crops from treated seeds compared to crops from control seeds.”

wheat [13] = assay: Experiment 1 wheat seed germination, laboratory conditions, seedling trays; settings: 20 ppm and 40 ppm seed treatment
Procedure: For the Experiments described below, application of 1,2-dimethyl-4-dimethylaminomethyl-5-hydroxy benzimidazole (referred to herein as INTRINSIC™) was by way of seed treatment. Treated seeds were prepared by mixing 1.0 kg of seed and 2.0 mL of an aqueous solution of INTRINSIC™ comprising 0.1% potassium hydroxide in a ZIPLOC™ bag. Control seeds were prepared by mixing 1.0 kg of seed and 2.0 mL of aqueous 0.1% potassium hydroxide solution in a ZIPLOC™ bag. The seeds and solutions were sufficiently mixed to wet the seeds. The seeds were dried after being wetted. […] Experiment 1 tested the effects of 20 ppm and 40 ppm INTRINSIC™ on wheat seed germination under laboratory conditions. Treated and control seeds were grown in seedling trays lined with moistened tissue.

[14] = 20 ppm and 40 ppm seed treatment
[15] = 40 ppm seed treatment, another set of tests

Compound: Cc1nc2c(CN(C)C)c(O)ccc2n1C [INTRINSIC™, 1,2-dimethyl-4-dimethylaminomethyl-5-hydroxy benzimidazole]
- root length compared to control seedlings (wheat [1]): significant increases
- root surface area compared to control seedlings (wheat [1]): significant increases
- root weight compared to control seedlings (wheat [1]; another set of tests): significant increases
- shoot weight compared to control seedlings (wheat [1]; another set of tests): significant increases
- foliage size compared to control seedlings (soy bean [2]): larger foliage
- number of roots compared to control seedlings (soy bean [2]): greater number of roots
- canola yield compared to crops from control seeds (canola [3]): greater yield
- canola yield compared to crops from control seeds (canola [4]): greater yield
- wheat yield compared to crops from control seeds (wheat [5]; 40 ppm seed treatment alone): greater yield
- wheat yield compared to crops from control seeds (wheat [5]; 40 ppm seed treatment in combination with CRUISER MAXX™): greater yield
- root length compared to control seedlings (canola [6]; [14]): significant increases
- root surface area compared to control seedlings (canola [6]; [14]): significant increases
- root weight compared to control seedlings (canola [6]; [15]): significant increases
- shoot weight compared to control seedlings (canola [6]; [15]): significant increases
- foliage size compared to control seedlings (canola [7]): larger foliage
- number of roots compared to control seedlings (canola [7]): greater number of roots
- root length compared to control seedlings (canola [7]): longer roots
- number of roots compared to control seedlings (wheat [8]): greater number of roots
- root length compared to control seedlings (wheat [8]): longer roots
- shoot length compared to control seedlings (wheat [8]): longer shoots
- foliage size compared to control seedlings (corn): larger foliage
- number of roots compared to control seedlings (corn): greater number of roots
- number of roots compared to control seedlings (wheat [9]): greater number of roots
- root length compared to control seedlings (wheat [9]): longer roots
- shoot length compared to control seedlings (wheat [9]): longer shoots
- root length compared to control seedlings (canola [10]): significant increases
- root surface area compared to control seedlings (canola [10]): significant increases
- root weight compared to control seedlings (canola [10]; another set of tests): significant increases
- shoot weight compared to control seedlings (canola [10]; another set of tests): significant increases
- number of roots compared to control seedlings (wheat [11]): greater number of roots
- root length compared to control seedlings (wheat [11]): longer roots
- shoot length compared to control seedlings (wheat [11]): longer shoots
- soy bean yield compared to crops from control seeds (soy bean [12]): greater yield
- number of wheat seeds broken open compared to control (wheat [13]; 24 hours): greater number
- number of roots compared to control seedlings (wheat [13]; 48 h, 72 h and 96 h): greater number of roots
- root length compared to control seedlings (wheat [13]; 48 h, 72 h and 96 h): longer roots
- shoot length compared to control seedlings (wheat [13]; 48 h, 72 h and 96 h): longer shoots
